Test results taken from US7109193B2, “Tricyclic diazepines tocolytic oxytocin receptor antagonists” (Wyeth, priority 2001, dated 2006).

Biological target: T1, human oxytocin receptor (Homo sapiens, UniProt P30559)
T1 construct: host or cells: CHO cells (pcDNA3.1 vector)
T1 sequence (P30559 1-389): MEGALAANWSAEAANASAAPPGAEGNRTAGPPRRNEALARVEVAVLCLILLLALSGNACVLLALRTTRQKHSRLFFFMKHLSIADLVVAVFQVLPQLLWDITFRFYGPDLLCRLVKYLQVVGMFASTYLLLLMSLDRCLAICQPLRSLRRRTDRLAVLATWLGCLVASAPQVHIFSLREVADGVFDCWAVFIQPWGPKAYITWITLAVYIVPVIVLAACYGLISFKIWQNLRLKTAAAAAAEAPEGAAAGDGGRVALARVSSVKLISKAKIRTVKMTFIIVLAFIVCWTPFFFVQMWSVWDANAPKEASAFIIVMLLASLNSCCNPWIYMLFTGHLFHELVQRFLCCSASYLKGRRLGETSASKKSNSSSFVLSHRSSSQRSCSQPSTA
Experiment: Oxytocin binding in Chinese Hamster Ovary cell membranes expressing human oxytocin receptors
Settings: 100 nM, CHO cell membranes, [3H]oxytocin, values without parentheses; for inhibition at 0.1 µM: read-out: OT % inhibition @ 100% nM
Experimental: Oxytocin Binding in Chinese Hamster Ovary Cell Membranes Expressing Human Oxytocin Receptors
The trypsin is removed by aspiration and the cells dislodged by tapping. Cell Culture medium (e.g. 30 mL for 1:30 split) is immediately added and mixed well to inactivate trypsin. 1 mL of detached cells is added to new culture flasks containing fresh Cell Culture medium (e.g. into 25 mL per T-150 flask), and mixed gently. The cells are incubated at 37° C. in 5% CO2. The medium is changed at 3 to 4 days interval (or as appropriate). […] All steps are done under sterile conditions. B. Membrane Preparation: The cells are washed twice gently with Hank's Balanced Salt solution (e.g., use 10 mL per T-150 flask). […] The contents are transferred to centrifuge tubes (50 mL size) kept in ice bath. All subsequent steps are done at 4° C. The tubes are centrifuged at 300×g for 15 min (1380 rpm on SORVAL, Model RT6000D, using rotor for 50 mL tubes). The supernatant is discarded and the cells suspended in homogenizing buffer (10 mM Tris-HCl containing 0.25 M sucrose and 1 mM EDTA, pH 7.4) ensuring that the volume of the buffer is about ten times the volume of the cell pellet. The cells are pooled into a centrifuge tube (50 mL) and homogenized with a Polytron at setting 6 for 10 sec. The homogenate is transferred into a Potter-Elvjehm homogenizer and homogenized with 3 strokes. The homogenate is centrifuged at 1500×g for 10 min at 4° C. (3100 rpm using SORVAL, model RT6000D, using rotor for 50 mL tubes). The pellet is discarded. The supernatant is centrifuged at 100,000×g for 60 min. at 4° C. (Beckman L8-80M ultracentrifuge; spin at 37,500 rpm with rotor type 70 Ti for 50 mL tubes; 38,000 rpm with type 80Ti for 15 mL tubes; or 35,800 rpm with rotor type 45Ti). The supernantant is discarded and the pellet suspended in 3 to 4 mL of Tris buffer (50 mM TRIS-HCl, pH 7.4). The protein content is estimated by the Bradford or Lowry method. The volume of the membrane suspension is adjusted with the membrane buffer (50 mM Tris-HCl containing 0.1% BSA and 0.1 mM PMSF) to give 3.0 mg/mL (or as appropriate) of protein. The membranes are aliquoted and stored at −70° C. C. Radioligand Binding Assay: In wells of a 96-well format microtiter plate, is added 90, 110 or 130 μL (to make up a final volume of 200 μL) of assay buffer containing 50 mM of Tris-HCl (pH 7.4), […], 1 mg % aprotinin, 1 mg % leupeptin, 2 mg % 1,10-phenanthroline, 10 mg % trypsin inhibitor, and 0.1 mM PMSF. The inhibitors are added on the day of the experiment. The components are mixed at room temperature, and then kept in ice bath following adjustment of the pH to 7.4. […] For oxytocin and other peptide ligands, 20 μL of 50% DMSO is added and the assay buffer volume is adjusted accordingly. To each well is added 50 μL of frozen membrane suspension thawed immediately prior to use and diluted in assay buffer to the required concentration (equivalent to 25 to 50 μg of protein/well as needed). 20 μL of 8 nM [^3H]oxytocin in the assay buffer, prepared just before use is added and incubated at room temperature for 60 min. shaking the plate on a mechanical shaker for the first 15 min. The incubation is stopped by rapid filtration of the plate contents followed by washing with ice-cold buffer (50 mM Tris-HCl, pH 7.4) using a cell harvester (Tomtek and Printed filtermat-B filter paper). The filter paper is thoroughly dried (7–12 min. in a microwave oven) and impregnated with MeltiLex B/H melt-on scintillation wax sheets and the radioactivity counted in a betaplate scintillation counter.
Binding data is either reported as percent inhibition at a certain concentration or if an IC50 was calculated, as a nanomolar concentration.

inhibition at 0.1 µM [%]	SMILES	OT % inhibition @ 100% nM [%]
–	COc1cc(C(=O)N2Cc3ccc(C(=O)N4CC[C@@H](N(C)C)C4)n3Cc3ccccc32)ccc1-c1cccc2ccccc12 [Example 276, [(3R)-3-(Dimethylamino)pyrrolidinyl]{10-[3-methoxy-4-(1-naphthyl)benzoyl]-10,11-dihydro-5H-pyrrolo[2,1-c][1,4]benzodiazepin-3-yl}methanone]	74
96	COc1cccc(-c2ccc(C(=O)N3Cc4ccc(C(=O)N(C)CCCN(C)C)n4Cc4ccccc43)cc2OC)c1 [Example 108, 10-[(2,3′-Dimethoxy[1,1′-biphenyl]-4-yl)carbonyl]-N-[3-(dimethylamino)propyl]-N-methyl-10,11-dihydro-5H-pyrrolo[2,1-c][1,4]benzodiazepine-3-carboxamide]	–
33	O=C(c1ccc2n1Cc1ccccc1N(C(=O)c1ccc(-c3cccc4ccccc34)cc1Cl)C2)N1CCC(N2CCCC2)CC1 [Example 147, {10-[2-Chloro-4-(1-naphthyl)benzoyl]-10,11-dihydro-5H-pyrrolo[2,1-c][1,4]benzodiazepin-3-yl}[4-(1-pyrrolidinyl)-1-piperidinyl]methanone]	–
–	COc1ccccc1-c1ccc(C(=O)N2Cc3ccc(C(=O)N4CCC[C@H]4CN4CCCC4)n3Cc3ccccc32)cc1OC [Example 269, {10-[(2,2′-Dimethoxy[1,1′-biphenyl]-4-yl)carbonyl]-10,11-dihydro-5H-pyrrolo[2,1-c][1,4]benzodiazepin-3-yl}[(2S)-2-(1-pyrrolidinylmethyl)pyrrolidinyl]methanone]	88
43	COc1cc(C(=O)N2Cc3ccc(C(=O)NCCCn4ccnc4)n3Cc3ccccc32)ccc1-c1ccccc1C [Example 128, N-[3-(1H-Imidazol-1-yl)propyl]-10-[(2-methoxy-2′-methyl[1,1′-biphenyl]-4-yl)carbonyl]-10,11-dihydro-5H-pyrrolo[2,1-c][1,4]benzodiazepine-3-carboxamide]	–
–	COc1cc(C(=O)N2Cc3ccc(C(=O)N(C)CCCN(C)C)n3Cc3ccccc32)ccc1-n1c(C)ccc1C [Example 310, N-[3-(Dimethylamino)propyl]-10-[4-(2,5-dimethyl-i H-pyrrol-1-yl)-3-methoxybenzoyl]-N-methyl-10,11-dihydro-5H-pyrrolo[2,1-c][1,4]benzodiazepine-3-carboxamide]	58
–	COc1cc(C(=O)N2Cc3ccc(C(=O)N4CCC[C@H]4CN4CCCC4)n3Cc3ccccc32)ccc1-c1ccccc1C [Example 266, {10-[(2-Methoxy-2′-methyl[1,1′-biphenyl]-4-yl)carbonyl]-10,11-dihydro-5H-pyrrolo[2,1-c][1,4]benzodiazepin-3-yl}[(2S)-2-(1-pyrrolidinylmethyl)pyrrolidinyl]methanone]	97
–	O=C(c1ccc(-c2cccc3ccccc23)cc1Cl)N1Cc2ccc(C(=O)N3CCC[C@H]3CN3CCCC3)n2Cc2ccccc21 [Example 261, {10-[2-Chloro-4-(1-naphthyl)benzoyl]-10,11-dihydro-5H-pyrrolo[2,1-c][1,4]benzodiazepin-3-yl}[(2S)-2-(1-pyrrolidinylmethyl)pyrrolidinyl]methanone]	52
75	Cc1ccccc1-c1ccc(C(=O)N2Cc3ccc(C(=O)NCCN4CCCCC4)n3Cc3ccccc32)cc1C [Example 150, 10-[(2,2′-Dimethyl[1,1′-biphenyl]-4-yl)carbonyl]-N-[2-(1-piperidinyl)ethyl]-10,11-dihydro-5H-pyrrolo[2,1-c][1,4]benzodiazepine-3-carboxamide]	–
97	Cc1ccccc1-c1ccc(C(=O)N2Cc3ccc(C(=O)N4CCC(N5CCCCC5)CC4)n3Cc3ccccc32)cc1C [Example 113, {10-[(2-Methyl-2′-methyl[1,1′-biphenyl]-4-yl)carbonyl]-10,11-dihydro-5H-pyrrolo[2,1-c][1,4]benzodiazepin-3-yl}[4-(1-piperidinyl)-1-piperidinyl]methanone]	–
–	COc1cc2c(cc1OC)N(C(=O)c1ccc(-c3ccccc3C(F)(F)F)c(C)c1)Cc1ccc(C(=O)N(C)CCCN(C)C)n1C2.Cl [Example 13, N-Methyl-[N-(3-dimethylamino)propyl]-7,8-dimethoxy-10-{[2-methyl-2′-(trifluoromethyl)[1,1′-biphenyl]-4-yl]carbonyl}-10,11-dihydro-5H-pyrrolo[2,1-c][1,4]benzodiazepine-3-carboxamide hydrochloride salt]	33
15	O=C(NCCCn1ccnc1)c1ccc2n1Cc1ccccc1N(C(=O)c1ccc(-c3cccc4ccccc34)cc1Cl)C2 [Example 134, 10-[2-Chloro-4-(1-naphthyl)benzoyl]-N-[3-(1H-imidazol-1-yl)propyl]-10,11-dihydro-5H-pyrrolo[2,1-c][1,4]benzodiazepine-3-carboxamide]	–
70	COc1cccc(-c2cc(OC)c(C(=O)N3Cc4ccc(C(=O)N5CCC(N6CCCCC6)CC5)n4Cc4ccccc43)cc2Cl)c1 [Example 117, {10-[(6-Chloro-3-methoxy-3′-methoxy[1,1′-biphenyl]-4-yl)carbonyl]-10,11-dihydro-5H-pyrrolo[2,1-c][1,4]benzodiazepin-3-yl}[4-(1-piperidinyl)-1-piperidinyl]methanone]	–
77	Cc1cc(C(=O)N2Cc3ccc(C(=O)N4CCC(N5CCCCC5)CC4)n3Cc3ccccc32)ccc1-c1ccccc1C(F)(F)F [Example 122, {10-[(2-Methyl-2′-(trifluoromethyl) -[1,1′-biphenyl]-4-yl)carbonyl]-10,11-dihydro-5H -pyrrolo[2,1-c][1,4]benzodiazepin-3-yl}[4-(1-piperidinyl)-1-piperidinyl]methanone]	–
–	COc1cccc(-c2ccc(C(=O)N3Cc4ccc(C(=O)N5CCC[C@H]5CN5CCCC5)n4Cc4ccccc43)cc2OC)c1 [Example 270, {10-[(2,3′-Dimethoxy[1,1′-biphenyl]-4-yl)carbonyl]-10,11-dihydro-5H-pyrrolo[2,1-c][1,4]benzodiazepin-3-yl}[(2S)-2-(1-pyrrolidinylmethyl)pyrrolidinyl]methanone]	95
–	COc1ccccc1-c1ccc(C(=O)N2Cc3ccc(C(=O)N4CCC(N5CCCC5)CC4)n3Cc3ccccc32)cc1OC [Example 145, {10-[(2,2′-Dimethoxy[1,1′-biphenyl]4-yl)carbonyl]-10,11-dihydro-5H-pyrrolo[2,1-c][1,4]benzodiazepin-3-yl}[4-(1-pyrrolidinyl)-l-piperidinyl]methanone]	53
–	Cc1ccccc1-c1ccc(C(=O)N2Cc3ccc(C(=O)N4CCC[C@H]4CN4CCCC4)n3Cc3ccccc32)cc1C [Example 260, {10-[(2,2′-Dimethyl[1,1′-biphenyl]-4-yl)carbonyl]-10,11-dihydro-5H-pyrrolo[2,1-c][1,4]benzodiazepin-3-yl}[(2S)-2-(1-pyrrolidinylmethyl)pyrrolidinyl]methanone]	102
